# Test results taken from US20040086999A1, “Mutated-pf-4, its fragments and mutated fusion peptides, their analogues, corresponding dna, cdna and mrna sequences and their use for inhibiting angiognesis” (priority 2000, published 2004).
# pIC50: −log10 of the molar value.
# Key:
# [1] = tested on: FGF-2 high-affinity receptors; assay: Inhibition of binding of 125I-FGF-2 to high-affinity receptors on endothelial cells; conditions: 125I-FGF-2 10 ng/ml, 2 h at 4° C., read-out: I50, inhibition of the binding of FGF-2 to the high-affinity receptors
# Method: (§1) The inhibition of the binding of FGF-2 to high-affinity receptors (Table 1) is measured in the following manner. FGF-2 is radiolabeled with ^125I-Na, and 10 ng/ml are incubated with endothelial cells for 2 h at 4° C. The radioactivity bound to high-affinity receptors is then determined. The specific binding is estimated by subtracting the nonspecific binding from the total binding (in the presence of a 100-fold excess of cold ligand relative to the hot ligand). The I50 is the concentration which inhibits specific binding by 50%.
# (§2) A more detailed description of these measurements of I50 may be found in Jouan et al. and in Perollet et al. cited above.
# VEGF receptors = assay: Inhibition of binding of 125I-VEGF to surface receptors on endothelial cells; conditions: 125I-VEGF 10 ng/ml, 2 h at 4° C., read-out: I50, inhibition of the binding of VEGF to the high-affinity receptors
# Method: The inhibition of the binding of VEGF to the surface receptors (Table 1) is measured in the following manner. VEGF is radiolabeled with ^125I-Na, and 10 ng/ml are incubated with endothelial cells for 2 h at 4° C. The radioactivity bound to the receptors is then determined. The specific binding is estimated by subtracting the nonspecific binding from the total binding (in the presence of a 100-fold excess of cold ligand relative to the hot ligand). The I50 is the concentration which inhibits specific binding by 50%.
# as §2
# [2] = tested on: proliferation induced by FGF-2; assay: Inhibition of the biological activity of FGF-2 (FGF-2-induced cell proliferation, cell count); format: cell-based; conditions: 20 000 cells, 10 ng/ml FGF-2, DMEM 1% FCS, counted on day 6; read-out: I50, inhibition of cell proliferation
# Method: The inhibition of the biological activity of FGF-2 (Table 3) is measured in the following manner: 20 000 cells are incubated with 10 ng/ml of FGF-2 in DMEM medium containing 1% fetal calf serum (FCS) in dishes 3.5 cm in diameter in the presence or in the absence of peptide. The cells are counted on the 6 day using a Coulter counter. The experiments are carried out in duplicate. The I50 is the concentration which inhibits the proliferation induced by FGF-2 by 50%.
# as §2
# proteoglycans = assay: Inhibition of binding of 125I-FGF-2 to proteoglycans on endothelial cells; conditions: 125I-FGF-2 10 ng/ml, 2 h at 4° C., read-out: I50, inhibition of the binding of FGF-2 to proteoglycans
# Method: as §1, with “to the proteoglycans” for “to high-affinity receptors”, “(Table 2)” for “(Table 1)”, “cold […]” for “cold ligand”
# as §2
# angiogenesis = assay: Inhibitory activity tests of the fusion peptide (method not described); conditions: test not specified
pIC50 [1],pIC50 (VEGF receptors),pIC50 (proteoglycans),Substance,pIC50 [2],Inhibitory activity compared with native PF-4 or fragment 47-70 (angiogenesis)
5.82,5.82,5.46,"Peptide 47-70 DLQ: nonmutated PF-4 fragment 47-70, control peptide used as comparative example (NGRKICLDLQAPLYKKIIKKLLES; Platelet factor 4; UniProt P02776 78-101, looked up, fragment) [reference compound]",5.55,–
6.52,6.52,6.22,Peptide 47-70 DLR: PF-4 fragment 47-70 with glutamine in position 56 replaced by arginine (SEQ. ID. No:3) (NGRKICLDLRAPLYKKIIKKLLES; SEQ ID NO. 3 is the 47-70 fragment of mutated PF-4 SEQ ID. NO. 2),6.40,–
–,–,–,fusion peptide 17-34/47-70: fusion peptide 17-34/47-70 derived from PF-4; the mutated form is SEQ. ID. No:4 (SQVRPRHITSLEVIKAGPNGRKICLDLRAPLYKKIIKKLLES; SEQ ID NO. 4 is the 17-34/47-70 fragment of mutated PF-4 SEQ. ID NO. 2.) [fusion peptide 17-34/47-70 derived from PF-4; ID; No:4],–,inhibitory activity greater than that of native PF-4 or of fragment 47-70
